Measurements published in ChEMBL document CHEMBL1201862, “PubChem BioAssay data set” (2004).
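Exposure lasted 48 hours, with cells grown in 96-well plates and compounds tested at five concentrations. GI50: concentration for 50% inhibition of growth.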 Active and inactive are the calls of the source. No stated cut-off is given here; in the data, active = GI50 up to about 1.1 µM and inactive = higher.

What was measured:
Assay in all cases: NCI anticancer screen, dose series, 48 h
[1] = tested on: DLD-1
[2] = tested on: DMS-114
[3] = tested on: HOP-18
[4] = tested on: KM-20L2
[5] = tested on: LXFL 529
[6] = tested on: M19-MEL
[7] = tested on: XF498
[8] = tested on: SNB-78
[9] = tested on: RXF 631

| Structure (SMILES) | GI50 [1] | GI50 [2] | GI50 [3] | GI50 [4] | GI50 [5] | GI50 [6] | GI50 [7] | GI50 [8] | GI50 [9] |
| --- | --- | --- | --- | --- | --- | --- | --- | --- | --- |
| CSC(=N)N1N=C2c3ccccc3CC[C@@H]2[C@@H]1c1ccccc1 | 12.9 µM (inactive) | 13.3 µM (inactive) | 18.5 µM (inactive) | 12 µM (inactive) | 11.5 µM (inactive) | 15.9 µM (inactive) | 16.7 µM (inactive) | – | – |
| N#CC(C#N)=C1NC(=O)CC(=O)N1 | > 100 µM (inactive) | > 100 µM (inactive) | – | > 100 µM (inactive) | > 100 µM (inactive) | > 100 µM (inactive) | > 100 µM (inactive) | > 100 µM (inactive) | – |
| COc1ccc(/C=C/C(C(=O)O)C(=O)O)cc1 | > 100 µM (inactive) | > 100 µM (inactive) | – | 91.6 µM (inactive) | 36.4 µM (inactive) | 61.8 µM (inactive) | > 100 µM (inactive) | 48.1 µM (inactive) | – |
| CN1CCN(CCn2c3c4ccccc4ccc3c3oc(=O)c4ccccc4c32)CC1 | 2.28 µM (inactive) | 1.95 µM (inactive) | 12.6 µM (inactive) | 2.58 µM (inactive) | 4.06 µM (inactive) | 10.8 µM (inactive) | – | 11.4 µM (inactive) | 5.19 µM (inactive) |
| C=C1CC(CCCl)(c2ccccc2)OC1=O (centres undefined) | 20.1 µM (inactive) | 37.9 µM (inactive) | > 42.9 µM (inactive) | 61.8 µM (inactive) | 20 µM (inactive) | 34.7 µM (inactive) | 41.2 µM (inactive) | 42.2 µM (inactive) | > 42.7 µM (inactive) |
| NNC(=O)N/N=C1\CNC(=O)C(=O)C1c1nc2ccccc2s1 (centres undefined) | > 100 µM (inactive) | > 100 µM (inactive) | – | > 100 µM (inactive) | > 100 µM (inactive) | > 100 µM (inactive) | > 100 µM (inactive) | > 100 µM (inactive) | – |
| C[C@@H](CO)OCOCc1ccccc1 | > 100 µM (inactive) | > 100 µM (inactive) | – | – | > 100 µM (inactive) | > 100 µM (inactive) | > 100 µM (inactive) | > 100 µM (inactive) | – |
| O=C(Nc1cccc(O)c1)C(=O)C(C(=O)c1ccc(Cl)c(Cl)c1)C1OC(=O)c2ccccc21 (centres undefined) | – | 12.1 µM (inactive) | 25.5 µM (inactive) | 18.8 µM (inactive) | 12.2 µM (inactive) | 12.4 µM (inactive) | 10.9 µM (inactive) | 7.08 µM (inactive) | – |
| Cc1ccc(S(=O)(=O)OC(C=O)C(O)C(O)COC(c2ccccc2)(c2ccccc2)c2ccccc2)cc1 (centres undefined) | – | 17.6 µM (inactive) | – | 14.1 µM (inactive) | 12.8 µM (inactive) | 13.1 µM (inactive) | 15.8 µM (inactive) | – | 0.46 µM (active) |
| C[Si]12OCCCN(CCO1)CCO2 | > 100 µM (inactive) | > 100 µM (inactive) | – | – | > 100 µM (inactive) | > 100 µM (inactive) | – | > 100 µM (inactive) | – |
| Cc1ccc(NC(=O)CC(=O)n2nc(-c3ccccc3)c(/N=N/c3ccc(Cl)cc3)c2-c2ccccc2)cc1 | 15.3 µM (inactive) | 39.6 µM (inactive) | 39 µM (inactive) | 49.9 µM (inactive) | 64.7 µM (inactive) | 22 µM (inactive) | – | > 100 µM (inactive) | > 100 µM (inactive) |
| C=C1C(=O)OC2C(C)C3C=CC(=O)[C@@]3(C)C(OC(=O)/C(C)=C/C)C1[C@@H]2OC(C)=O (some centres undefined) | 0.5 µM (active) | 0.861 µM (active) | 1.79 µM (inactive) | 1.51 µM (inactive) | 0.359 µM (active) | 0.547 µM (active) | 1.25 µM (inactive) | 0.396 µM (active) | – |
| Oc1cccc2c1NC1=C(CCC/C1=C\c1ccccc1)C2 | – | 67.8 µM (inactive) | – | 52.6 µM (inactive) | 89.5 µM (inactive) | 55.8 µM (inactive) | 57.1 µM (inactive) | – | – |
| C=CCCCC(C#N)(c1ccccc1)N1CCCC1 (centres undefined) | – | > 100 µM (inactive) | – | > 100 µM (inactive) | – | > 100 µM (inactive) | – | > 100 µM (inactive) | – |
